Test results as given in patent US20110123623A1, “RHAMNOLIPID MECHANISM” (priority 2009, published 2011).
Values joined by “and” are separate entries in the source; they are usually repeats but may differ in a detail not shown here. Equal values may be shown once.

Test system: psoriatic patients
Experiment: Physician sponsored treatment of psoriatic patients (PASI)
Type: in vivo, human
From the text: Twelve psoriatic hospital bed patients, and one patient with seborrheic dermatitis and psoriasis, one patient with lichen planus and one with dermatitis cicumscripta unilocullaris as an out clinic patient were recruited as study volunteers.
Abbreviations: PASI=Psoriasis Area Severity Index (Erythema, Infiltration and Scaling); PVP=Psoriasis Vulgaris in Placibus; d=days; m=months; y=years; ster=steroids (treated)

CCCCCCCC(CC(=O)O)OC(=O)CC(CCCCCCC)OC1OC(C)C(O)C(O)C1OC1OC(C)C(O)C(O)C1O (centres unmarked) [Di-rhamnolipid W3CTS]
Psoriasis Area Severity Index After Treatment W3CTS (1.0% eucerin ointment, 15-40 treating days, one patient per line): 0.2 (5×) and 0.3 and 0.4 and 6 and 0.6 (2×) and 1.6 and 0.9 | Psoriasis Area Severity Index Extended Evaluation W3CTS (1 y (year), one patient per line): 1 y = 0 | Psoriasis Area Severity Index Extended Evaluation W3CTS (3 m (months), one patient per line): 3 m = 0 (2×) and 3 m relapse and 3 m = 0.1 | Psoriasis Area Severity Index Before Treatment W3CTS (baseline of W3CTS treated lesions, one patient per line): 9.6 (2×) and 8.1 (3×) and 10.8 (4×) and 14.4 and 5.4 and 8.4 | duration free of psoriatic lesions (some of the patients): free of psoriatic lesions up to seven years
